What was measured:
[1] = molecular target: Integrin alpha-IIb/beta-3 (Homo sapiens, UniProt P08514+P05106); assay: Inhibition of platelet aggregation induced by 20 uM adenosine 5-diphosphate (ADP) in citreated human platelet rich plasma (h-PRP)
[2] = Inhibition of human platelet (h-PRP) aggregation induced by 20 uM ADP with PPACK

Sequence of Integrin alpha-IIb/beta-3 (P05106 27-788 limits assumed): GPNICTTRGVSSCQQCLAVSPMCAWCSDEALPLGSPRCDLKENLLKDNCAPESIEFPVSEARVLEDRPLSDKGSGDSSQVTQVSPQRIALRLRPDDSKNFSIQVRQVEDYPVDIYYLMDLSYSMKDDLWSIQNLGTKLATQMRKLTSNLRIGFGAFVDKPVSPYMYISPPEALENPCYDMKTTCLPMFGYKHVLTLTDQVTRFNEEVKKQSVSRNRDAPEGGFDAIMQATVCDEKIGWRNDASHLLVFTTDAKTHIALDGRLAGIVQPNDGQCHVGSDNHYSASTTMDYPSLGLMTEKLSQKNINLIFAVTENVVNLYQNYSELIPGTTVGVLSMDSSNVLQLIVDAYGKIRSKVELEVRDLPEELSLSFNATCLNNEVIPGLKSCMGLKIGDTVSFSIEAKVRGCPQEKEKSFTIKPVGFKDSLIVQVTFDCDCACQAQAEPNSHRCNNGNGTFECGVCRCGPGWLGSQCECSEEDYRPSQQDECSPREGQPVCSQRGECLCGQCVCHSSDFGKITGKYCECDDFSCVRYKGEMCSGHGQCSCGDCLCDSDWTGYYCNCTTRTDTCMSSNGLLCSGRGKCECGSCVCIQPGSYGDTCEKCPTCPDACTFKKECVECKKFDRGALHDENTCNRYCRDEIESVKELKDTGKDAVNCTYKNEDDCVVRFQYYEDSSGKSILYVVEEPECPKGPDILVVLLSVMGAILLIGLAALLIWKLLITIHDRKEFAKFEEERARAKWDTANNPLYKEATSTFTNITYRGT
Sequence of Integrin alpha-IIb/beta-3 (P08514 32-887 limits assumed): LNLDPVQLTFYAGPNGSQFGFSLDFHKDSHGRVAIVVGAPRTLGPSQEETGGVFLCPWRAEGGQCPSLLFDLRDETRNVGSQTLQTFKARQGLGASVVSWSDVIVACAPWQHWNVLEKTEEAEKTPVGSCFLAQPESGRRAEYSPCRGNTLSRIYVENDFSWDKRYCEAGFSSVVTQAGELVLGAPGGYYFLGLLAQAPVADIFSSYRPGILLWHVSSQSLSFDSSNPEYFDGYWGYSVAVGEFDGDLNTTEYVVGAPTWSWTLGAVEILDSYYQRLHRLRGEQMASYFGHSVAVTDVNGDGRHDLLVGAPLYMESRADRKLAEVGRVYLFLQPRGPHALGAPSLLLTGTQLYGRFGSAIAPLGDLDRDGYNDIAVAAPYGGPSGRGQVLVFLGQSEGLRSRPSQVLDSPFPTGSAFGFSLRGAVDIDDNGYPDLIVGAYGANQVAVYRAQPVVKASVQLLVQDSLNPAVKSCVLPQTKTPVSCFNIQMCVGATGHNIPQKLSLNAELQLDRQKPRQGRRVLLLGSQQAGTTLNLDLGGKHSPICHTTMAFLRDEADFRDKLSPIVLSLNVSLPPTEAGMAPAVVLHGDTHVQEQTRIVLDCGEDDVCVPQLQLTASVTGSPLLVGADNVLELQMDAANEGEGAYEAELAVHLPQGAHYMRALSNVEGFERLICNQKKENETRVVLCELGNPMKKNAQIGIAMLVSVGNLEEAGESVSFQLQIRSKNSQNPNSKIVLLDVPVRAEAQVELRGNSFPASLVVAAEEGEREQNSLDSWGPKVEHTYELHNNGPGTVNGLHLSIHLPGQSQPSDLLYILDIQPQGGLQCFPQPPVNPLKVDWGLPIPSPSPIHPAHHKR
Sequence of Integrin alpha-IIb/beta-3 (P08514 891-1039 limits assumed): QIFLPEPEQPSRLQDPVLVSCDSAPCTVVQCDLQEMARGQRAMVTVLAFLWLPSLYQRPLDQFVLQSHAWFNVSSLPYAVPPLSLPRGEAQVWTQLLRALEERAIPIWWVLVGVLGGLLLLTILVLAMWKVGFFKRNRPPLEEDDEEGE

SMILES: CC(CC(=O)O)NC(=O)N1CCC2(CC1)CCN(c1ccc(C(=N)N)cc1)C2=O (configuration not stated) [3-{[2-(4-Carbamimidoyl-phenyl)-1-oxo-2,8-diaza-spiro[4.5]decane-8-carbonyl]-amino}-butyric acid]
- IC50 [1]: 122 nM

SMILES: Cc1noc(C)c1S(=O)(=O)N[C@@H](CCC(=O)N1CCC2(CC1)C(=O)N(c1ccc(C(=N)N)cc1)C(=O)N2C)C(=O)O [5-[3-(4-Carbamimidoyl-phenyl)-1-methyl-2,4-dioxo-1,3,8-triaza-spiro[4.5]dec-8-yl]-2-(3,5-dimethyl-isoxazole-4-sulfonylamino)-5-oxo-pentanoic acid]
- IC50 [1]: 118 nM

SMILES: N=C(N)c1ccc(N2C(=O)NC3(CCN(C(=O)NCCC(=O)O)CC3)C2=O)cc1 [3-{[3-(4-Carbamimidoyl-phenyl)-2,4-dioxo-1,3,8-triaza-spiro[4.5]decane-8-carbonyl]-amino}-propionic acid]
- IC50 [1]: 468 nM

SMILES: C[C@H](CC(=O)O)CC(=O)N1CCC2(CC1)CCN(c1ccc(C(=N)N)cc1)C2=O [(S)-5-[2-(4-Carbamimidoyl-phenyl)-1-oxo-2,8-diaza-spiro[4.5]dec-8-yl]-3-methyl-5-oxo-pentanoic acid]
- IC50 [1]: 350 nM

SMILES: N=C(N)c1ccc(N2CCC3(CCN(C(=O)CCC(=O)O)CC3)C2=O)cc1 [4-[2-(4-Carbamimidoyl-phenyl)-1-oxo-2,8-diaza-spiro[4.5]dec-8-yl]-4-oxo-butyric acid]
- IC50 [1]: 733 nM

SMILES: N=C(N)c1ccc(N2CCC3(CCN(C(=O)CC(CC(=O)O)c4ccccc4)CC3)C2=O)cc1 (configuration not stated) [5-[2-(4-Carbamimidoyl-phenyl)-1-oxo-2,8-diaza-spiro[4.5]dec-8-yl]-5-oxo-3-phenyl-pentanoic acid]
- IC50 [1]: 149 nM

SMILES: C[C@H](CC(=O)O)NC(=O)N1CCC2(CC1)CCN(c1ccc(C(=N)N)cc1)C2=O [(R)-3-{[2-(4-Carbamimidoyl-phenyl)-1-oxo-2,8-diaza-spiro[4.5]decane-8-carbonyl]-amino}-butyric acid]
- IC50 [1]: 68 nM

SMILES: Cc1ccc(S(=O)(=O)N[C@@H](CNC(=O)N2CCC3(CC2)C(=O)N(c2ccc(C(=N)N)cc2)C(=O)N3C)C(=O)O)cc1 [(S)-3-{[3-(4-Carbamimidoyl-phenyl)-1-methyl-2,4-dioxo-1,3,8-triaza-spiro[4.5]decane-8-carbonyl]-amino}-2-(toluene-4-sulfonylamino)-propionic acid]
- IC50 [1]: 59 nM

SMILES: N=C(N)c1ccc(N2CCC3(CCN(C(=O)CCCCC(=O)O)CC3)C2=O)cc1 [6-[2-(4-Carbamimidoyl-phenyl)-1-oxo-2,8-diaza-spiro[4.5]dec-8-yl]-6-oxo-hexanoic acid]
- IC50 [1]: 3400 nM

SMILES: CN1C(=O)N(c2ccc(C(=N)N)cc2)CC12CCN(C(=O)NCCC(=O)O)CC2 [3-{[3-(4-Carbamimidoyl-phenyl)-1-methyl-2-oxo-1,3,8-triaza-spiro[4.5]decane-8-carbonyl]-amino}-propionic acid]
- IC50 [1]: 212 nM

SMILES: CCCCOC(=O)N[C@@H](CCC(=O)N1CCC2(CC1)C(=O)N(c1ccc(C(=N)N)cc1)C(=O)N2C)C(=O)O [2-Butoxycarbonylamino-5-[3-(4-carbamimidoyl-phenyl)-1-methyl-2,4-dioxo-1,3,8-triaza-spiro[4.5]dec-8-yl]-5-oxo-pentanoic acid]
- IC50 [1]: 65 nM

SMILES: CCNC(=N)c1ccc(N2CCC3(CCN(C(=O)CCCC(=O)O)CC3)C2=O)cc1 [5-{2-[4-(N-Ethylcarbamimidoyl)-phenyl]-1-oxo-2,8-diaza-spiro[4.5]dec-8-yl}-5-oxo-pentanoic acid]
- IC50 [1]: 7540 nM

SMILES: N=C(N)c1ccc(N2CC3(CCN(C(=O)NCCC(=O)O)CC3)NC2=O)cc1 [3-{[3-(4-Carbamimidoyl-phenyl)-2-oxo-1,3,8-triaza-spiro[4.5]decane-8-carbonyl]-amino}-propionic acid]
- IC50 [1]: 3770 nM

SMILES: N=C(N)c1ccc(N2C(=O)CC3(CCN(C(=O)NCCC(=O)O)CC3)C2=O)cc1 [3-{[2-(4-Carbamimidoyl-phenyl)-1,3-dioxo-2,8-diaza-spiro[4.5]decane-8-carbonyl]-amino}-propionic acid]
- IC50 [1]: 640 nM

SMILES: N=C(N)c1ccc(N2C(=O)NC3(CCN(C(=O)CCCC(=O)O)CC3)C2=O)cc1 [5-[3-(4-Carbamimidoyl-phenyl)-2,4-dioxo-1,3,8-triaza-spiro[4.5]dec-8-yl]-5-oxo-pentanoic acid]
- IC50 [1]: 586 nM

SMILES: CCCCOC(=O)N[C@@H](CCC(=O)N1CCC2(CC1)CC(=O)N(c1ccc(C(=N)N)cc1)C2=O)C(=O)O [2-Butoxycarbonylamino-5-[2-(4-carbamimidoyl-phenyl)-1,3-dioxo-2,8-diaza-spiro[4.5]dec-8-yl]-5-oxo-pentanoic acid]
- IC50 [1]: 270 nM

SMILES: CN1C(=O)N(c2ccc(C(=N)N)cc2)CC12CCN(C(=O)CC(CC(=O)O)c1ccccc1)CC2 (configuration not stated) [5-[3-(4-Carbamimidoyl-phenyl)-1-methyl-2-oxo-1,3,8-triaza-spiro[4.5]dec-8-yl]-5-oxo-3-phenyl-pentanoic acid]
- IC50 [1]: 80 nM

SMILES: N=C(N)c1ccc(N2CC3(CCN(C(=O)CCC(=O)O)CC3)CC2=O)cc1 [4-[2-(4-Carbamimidoyl-phenyl)-3-oxo-2,8-diaza-spiro[4.5]dec-8-yl]-4-oxo-butyric acid]
- IC50 [1]: 5700 nM

SMILES: C[C@@H](CC(=O)O)CC(=O)N1CCC2(CC1)CCN(c1ccc(C(=N)N)cc1)C2=O [(R)-5-[2-(4-Carbamimidoyl-phenyl)-1-oxo-2,8-diaza-spiro[4.5]dec-8-yl]-3-methyl-5-oxo-pentanoic acid]
- IC50 [2]: 112 nM

SMILES: Cc1noc(C)c1S(=O)(=O)N[C@@H](CCC(=O)N1CCC2(CC1)CCN(c1ccc(C(=N)N)cc1)C2=O)C(=O)O [5-[2-(4-Carbamimidoyl-phenyl)-1-oxo-2,8-diaza-spiro[4.5]dec-8-yl]-2-(3,5-dimethyl-isoxazole-4-sulfonylamino)-5-oxo-pentanoic acid]
- IC50 [1]: 36 nM

SMILES: N=C(N)c1ccc(N2CC3(CCN(C(=O)CCCC(=O)O)CC3)NC2=O)cc1 [5-[3-(4-Carbamimidoyl-phenyl)-2-oxo-1,3,8-triaza-spiro[4.5]dec-8-yl]-5-oxo-pentanoic acid]
- IC50 [1]: 1020 nM

SMILES: N=C(N)c1ccc(N2C(=O)CC3(CCN(C(=O)CCCC(=O)O)CC3)C2=O)cc1 [5-[2-(4-Carbamimidoyl-phenyl)-1,3-dioxo-2,8-diaza-spiro[4.5]dec-8-yl]-5-oxo-pentanoic acid]
- IC50 [1]: 730 nM

SMILES: N=C(N)c1ccc(N2CCC3(CCN(CCCCC(=O)O)CC3)C2=O)cc1 [5-[2-(4-Carbamimidoyl-phenyl)-1-oxo-2,8-diaza-spiro[4.5]dec-8-yl]-pentanoic acid]
- IC50 [1]: 5180 nM

SMILES: N=C(N)c1ccc(N2CC3(CCN(C(=O)CC(CC(=O)O)c4ccccc4)CC3)CC2=O)cc1 (configuration not stated) [5-[2-(4-Carbamimidoyl-phenyl)-3-oxo-2,8-diaza-spiro[4.5]dec-8-yl]-5-oxo-3-phenyl-pentanoic acid]
- IC50 [1]: 100 nM

SMILES: CN1C(=O)N(c2ccc(C(=N)N)cc2)CC12CCN(C(=O)CCCC(=O)O)CC2 [5-[3-(4-Carbamimidoyl-phenyl)-1-methyl-2-oxo-1,3,8-triaza-spiro[4.5]dec-8-yl]-5-oxo-pentanoic acid]
- IC50 [1]: 674 nM

SMILES: CN1C(=O)N(c2ccc(C(=N)N)cc2)C(=O)C12CCN(CCCCC(=O)O)CC2 [5-[3-(4-Carbamimidoyl-phenyl)-1-methyl-2,4-dioxo-1,3,8-triaza-spiro[4.5]dec-8-yl]-pentanoic acid]
- IC50 [1]: 7560 nM

SMILES: N=C(N)c1ccc(N2CC3(CCN(C(=O)CC(=O)O)CC3)CC2=O)cc1 [3-[2-(4-Carbamimidoyl-phenyl)-3-oxo-2,8-diaza-spiro[4.5]dec-8-yl]-3-oxo-propionic acid]
- IC50 [1]: 7400 nM

SMILES: N=C(N)c1ccc(N2CCC3(CCN(C(=O)CC(=O)O)CC3)C2=O)cc1 [3-[2-(4-Carbamimidoyl-phenyl)-1-oxo-2,8-diaza-spiro[4.5]dec-8-yl]-3-oxo-propionic acid]
- IC50 [1]: 12500 nM

SMILES: Cc1ccc(S(=O)(=O)N[C@@H](CNC(=O)N2CCC3(CC2)CCN(c2ccc(C(=N)N)cc2)C3=O)C(=O)O)cc1 [3-{[2-(4-Carbamimidoyl-phenyl)-1-oxo-2,8-diaza-spiro[4.5]decane-8-carbonyl]-amino}-2-(toluene-4-sulfonylamino)-propionic acid]
- IC50 [1]: 66 nM

SMILES: CN1C(=O)N(c2ccc(C(=N)N)cc2)C(=O)C12CCN(C(=O)CC(CC(=O)O)c1ccccc1)CC2 (configuration not stated) [5-[3-(4-Carbamimidoyl-phenyl)-1-methyl-2,4-dioxo-1,3,8-triaza-spiro[4.5]dec-8-yl]-5-oxo-3-phenyl-pentanoic acid]
- IC50 [1]: 120 nM

SMILES: CC(C)(COC(=O)N1CCC2(CC1)CC(=O)N(c1ccc(C(=N)N)cc1)C2)C(=O)O [2-(4-Carbamimidoyl-phenyl)-3-oxo-2,8-diaza-spiro[4.5]decane-8-carboxylic acid 2-carboxy-2-methyl-propyl ester]
- IC50 [1]: 3600 nM

SMILES: CN1C(=O)N(c2ccc(C(=N)N)cc2)C(=O)C12CCN(C(=O)NCCC(=O)O)CC2 [3-{[3-(4-Carbamimidoyl-phenyl)-1-methyl-2,4-dioxo-1,3,8-triaza-spiro[4.5]decane-8-carbonyl]-amino}-propionic acid]
- IC50 [1]: 222 nM

SMILES: CN1C(=O)N(c2ccc(C(=N)N)cc2)C(=O)C12CCN(C(=O)NC(CC(=O)O)c1ccccc1)CC2 (configuration not stated) [3-{[3-(4-Carbamimidoyl-phenyl)-1-methyl-2,4-dioxo-1,3,8-triaza-spiro[4.5]decane-8-carbonyl]-amino}-3-phenyl-propionic acid]
- IC50 [1]: 103 nM

SMILES: N=C(N)c1ccc(N2CC3(CCN(C(=O)NCCC(=O)O)CC3)CC2=O)cc1 [3-{[2-(4-Carbamimidoyl-phenyl)-3-oxo-2,8-diaza-spiro[4.5]decane-8-carbonyl]-amino}-propionic acid]
- IC50 [1]: 171 nM

SMILES: N=C(N)c1ccc(N2CC3(CCN(C(=O)CCCCC(=O)O)CC3)CC2=O)cc1 [6-[2-(4-Carbamimidoyl-phenyl)-3-oxo-2,8-diaza-spiro[4.5]dec-8-yl]-6-oxo-hexanoic acid]
- IC50 [1]: 4100 nM

SMILES: CN1C(=O)N(c2ccc(C(=N)N)cc2)C(=O)C12CCN(C(=O)CCCC(=O)O)CC2 [5-[3-(4-Carbamimidoyl-phenyl)-1-methyl-2,4-dioxo-1,3,8-triaza-spiro[4.5]dec-8-yl]-5-oxo-pentanoic acid]
- IC50 [1]: 700 nM

SMILES: CCCCOC(=O)N[C@@H](CCC(=O)N1CCC2(CC1)CCN(c1ccc(C(=N)N)cc1)C2=O)C(=O)O [2-Butoxycarbonylamino-5-[2-(4-carbamimidoyl-phenyl)-1-oxo-2,8-diaza-spiro[4.5]dec-8-yl]-5-oxo-pentanoic acid]
- IC50 [1]: 66 nM
